Assay results reported in patent US9505728B2, “Triazolone compounds and uses thereof” (INCEPTION 2, INC., priority 2012, dated 2016).

Each compound was assayed against T1, Human PPARα (Homo sapiens, UniProt Q07869) (assay: Human PPARα Reporter Assay (luciferase)). Settings: human PPARα reporter cells, overnight incubation, antagonism; read-out: Luciferase IC50.
T1 construct: host or cells: proprietary non-human mammalian cells
T1 sequence (Q07869 1-468): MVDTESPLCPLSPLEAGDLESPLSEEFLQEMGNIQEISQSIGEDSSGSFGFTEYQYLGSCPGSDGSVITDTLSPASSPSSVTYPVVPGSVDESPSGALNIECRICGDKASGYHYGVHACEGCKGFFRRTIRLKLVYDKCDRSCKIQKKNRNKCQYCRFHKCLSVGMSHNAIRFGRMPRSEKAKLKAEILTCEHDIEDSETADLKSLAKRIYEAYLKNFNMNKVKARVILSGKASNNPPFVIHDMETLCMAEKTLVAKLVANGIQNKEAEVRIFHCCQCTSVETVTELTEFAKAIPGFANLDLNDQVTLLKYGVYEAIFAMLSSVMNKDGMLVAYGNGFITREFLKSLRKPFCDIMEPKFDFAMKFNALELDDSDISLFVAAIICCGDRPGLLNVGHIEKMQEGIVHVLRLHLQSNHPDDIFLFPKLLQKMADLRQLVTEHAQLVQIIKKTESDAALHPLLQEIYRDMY
Type: cell-based
Procedure, shortened: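 Non-human mammalian cells constitutively expressing human PPARα with a PPARα-responsive luciferase reporter were dosed with compounds right after plating. After overnight incubation, media removed and detection reagent added; luminescence taken as proportional to PPARα activation, agonist or antagonist mode.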
In the case of CCn1c(CCCc2ccc(-c3ccc(C4(F)COC4)cc3)cc2)nn(Cc2ccc(C(C)(C)C)cc2)c1=O [Example 143, 1-(4-(tert-Butyl)benzyl)-4-ethyl-3-(3-(4%(3-fluorooxetan-3-yl)-[1,1′-biphenyl]-4-yl)propyl)-1H-1,2,4-triazol-5(4H)-one], the IC50 is reported as 101 nM. CCn1c(CCCc2ccc(-c3ccc(F)c(CC(=O)O)c3)cc2)nn(Cc2ccc(C(C)(C)C)cc2)c1=O [Example 33, 2-(4′-(3-(1-(4-(tert-Butyl)benzyl)-4-ethyl-5-oxo-4,5-dihydro-1H-1,2,4-triazol-3-yl)propyl)-4-fluoro-[1,1′-biphenyl]-3-yl)acetic acid] showed an IC50 of 427 nM. Compound CCn1c(CCCc2ccc(-c3cc(CC(=O)O)cc(OC)c3)cc2)nn(Cc2ccc(C(C)(C)C)cc2)c1=O [Example 194, 2-(3-{4-[3-(1-{[4-(tert-Butyl)phenyl]methyl}-4-ethyl-5-oxo(1,2,4-triazolin-3-yl))propyl]phenyl}-5-methoxyphenyl)acetic acid] has an IC50 of 83 nM. CCn1c(CCCc2ccc(-c3cccc(NC(=O)NCc4ccccc4)n3)cc2)nn(Cc2ccc(C(C)(C)C)cc2)c1=O [Example 155, 1-Benzyl-3-(6-(4-(3-(1-(4-(tert-butyl)benzyl)-4-ethyl-5-oxo-4,5-dihydro-1H-1,2,4-triazol-3-yl)propyl)phenyl)pyridin-2yl)urea] gave an IC50 of 362 nM. CCn1c(CCCc2ccc(-c3cncc(NS(=O)(=O)c4ccccc4)c3)cc2)nn(Cc2ccc(C(C)(C)C)cc2)c1=O [Example 117, N-(5-(4-(3-(1-(4-(tert-Butyl)benzyl)-4-ethyl-5-oxo-4,5-dihydro-1H-1,2,4-triazol-3-yl)propyl)phenyl)pyridin-3-yl)benzenesulfonamide] showed an IC50 of 799 nM. With CCn1c(CCCc2ccc(-c3cccc(NS(=O)(=O)c4ccc(C)cc4)c3)cc2)nn(Cc2ccc(C(C)(C)C)cc2)c1=O [Example 7, N-(4′-(3-(1-(4-(tert-Butyl)benzyl)-4-ethyl-5-oxo-4,5-dihydro-1H-1,2,4-triazol-3-yl)propyl)-[1,1′-biphenyl]-3-yl)-4-methylbenzenesulfonamide] the IC50 was 471 nM. CCn1c(CCCc2ccc(-c3cccc(C(C)(C)C(N)=O)c3)cc2)nn(Cc2ccc(C(C)(C)C)cc2)c1=O [Example 15, 2-(4′-(3-(1-(4-(tert-Butyl)benzyl)-4-ethyl-5-oxo-4,5-dihydro-1H-1,2,4-triazol-3-yl)propyl)-[1,1′-biphenyl]-3-yl)-2-methylpropanamide] was tested, and the IC50 was 519 nM. CCn1c(CCCc2ccc(-c3ccc(OC)c(S(=O)(=O)Nc4ccccn4)c3)cc2)nn(Cc2ccc(C(C)(C)C)cc2)c1=O [Example 123, 4′-(3-(1-(4-(tert-Butyl)benzyl)-4-ethyl-5-oxo-4,5-dihydro-1H-1,2,4-triazol-3-yl)propyl)-4-methoxy-N-(pyridin-2-yl)-[1,1′-biphenyl]-3-sulfonamide] was tested, and the IC50 was 186 nM. CCn1c(CCCc2ccc(-c3ccc(OC)c(C(=O)O)c3)cc2)nn(Cc2ccc(C(C)(C)C)cc2)c1=O [Example 65, 4′-(3-(1-(4-(tert-Butyl)benzyl)-4-ethyl-5-oxo-4,5-dihydro-1H-1,2,4-triazol-3-yl)propyl)-4-methoxy-[1,1′-biphenyl]-3-carboxylic acid] was tested, and the IC50 was 6 nM. For CCC(=O)NS(=O)(=O)c1cccc(-c2ccc(CCCc3nn(Cc4ccc(C(C)(C)C)cc4)c(=O)n3CC)cc2)c1 [Example 103, N-((4′-(3-(1-(4-(tert-Butyl)benzyl)-4-ethyl-5-oxo-4,5-dihydro-1H-1,2,4-triazol-3-yl)propyl)-[1,1′-biphenyl]-3-yl)sulfonyl)propionamide], the IC50 was 436 nM. For CCn1c(CCCc2ccc(-c3ccc(NS(=O)(=O)Cc4ccccc4)c(C)n3)cc2)nn(Cc2ccc(C(C)(C)C)cc2)c1=O [Example 125, 1-{[4-(tert-Butyl)phenyl]methyl}-4-ethyl-3-{3-[4-(6-methyl-5-{[benzylsulfonyl]amino}(2-pyridyl))phenyl]propyl}-1,2,4-triazolin-5-one], the IC50 was 356 nM. Work on CCSc1ccc(-c2ccc(CCCc3nn(Cc4ccc(C(C)(C)C)cc4)c(=O)n3CC)cc2)cc1CC(=O)O [Example 61, 2-(5-{4-[3-(1-{[4-(tert-Butyl)phenyl]methyl}-4-ethyl-5-oxo(1,2,4-triazolin-3-yl))propyl]phenyl}-2-ethylthiophenyl)acetic acid] yielded an IC50 of 20 nM. Compound CCn1c(CCCc2ccc(-c3cccc(CC(=O)O)c3)cc2)nn(Cc2ccc(C(C)(C)C)cc2)c1=O [Example 1, 2-(4′-(3-(1-(4-(tert-Butyl)benzyl)-4-ethyl-5-oxo-4,5-dihydro-1H-1,2,4-triazol-3-yl)propyl)-[1,1′-biphenyl]-3-yl)acetic acid] has an IC50 of 95 nM. CCn1c(CCCc2ccc(-c3cccc(CC(=O)NS(=O)(=O)c4ccccc4)c3)cc2)nn(Cc2ccc(C(C)(C)C)cc2)c1=O [Example 8, 2-(4′-(3-(1-(4-(tert-Butyl)benzyl)-4-ethyl-5-oxo-4,5-dihydro-1H-1,2,4-triazol-3-yl)propyl)-[1,1′-biphenyl]-3-yl)-N-(phenylsulfonyl) acetamide] was tested, and the IC50 was 304 nM. For CCn1c(CCCc2ccc(-c3cncc(NS(=O)(=O)c4ccccc4)n3)cc2)nn(Cc2ccc(C(C)(C)C)cc2)c1=O [Example 129, N-(6-(4-(3-(1-(4-(tert-Butyl)benzyl)-4-ethyl-5-oxo-4,5-dihydro-1H-1,2,4-triazol-3-yl)propyl)phenyl)pyrazin-2-yl)benzenesulfonamide], the IC50 was 36 nM. With CCn1c(CCCc2ccc(-c3cccc(NS(=O)(=O)c4ccc(-c5ccc(C)cc5)cc4)n3)cc2)nn(Cc2ccc(C(C)(C)C)cc2)c1=O [Example 73, 1-{[4-(tert-Butyl)phenyl]methyl}-4-ethyl-3-(3-{4-[6-({[4-(4-methylphenyl)phenyl]sulfonyl}amino)(2-pyridyl)]phenyl}propyl)-1,2,4-triazolin-5-one] the IC50 was 62 nM. For CCn1c(CCCc2ccc(-c3ccc(NS(=O)(=O)c4ccc(Cl)cc4)cn3)cc2)nn(Cc2ccc(C(C)(C)C)cc2)c1=O [Example 90, 1-{[4-(tert-Butyl)phenyl]methyl}-3-{3-[4-(5-{[(4-chlorophenyl)sulfonyl]amino}(2-pyridyl))phenyl]propyl}-4-ethyl-1,2,4-triazolin-5-one], the IC50 was 487 nM. CCn1c(CCCc2ccc(-c3ccc(C4(C(=O)O)CC4)cc3)cc2)nn(Cc2ccc(C(C)(C)C)cc2)c1=O [Example 137, 1-(4′-(3-(1-(4-(tert-Butyl)benzyl)-4-ethyl-5-oxo-4,5-dihydro-1H-1,2,4-triazol-3-yl)propyl)-[1,1′-biphenyl]-4-yl)cyclopropanecarboxylic acid] gave an IC50 of 676 nM. CCn1c(CCCc2ccc(-c3cc(OC)cc(C(=O)O)c3)cc2)nn(Cc2ccc(C(C)(C)C)cc2)c1=O [Example 193, 3-{4-[3-(1-{[4-(tert-Butyl)phenyl]methyl}-4-ethyl-5-oxo(1,2,4-triazolin-3-yl))propyl]phenyl}-5-methoxybenzoic acid] gave an IC50 of 21 nM. CCn1c(CCCc2ccc(-c3cc(CC(=O)O)ccc3F)cc2)nn(Cc2ccc(C(C)(C)C)cc2)c1=O [Example 19, 2-(4′-(3-(1-(4-(tert-Butyl)benzyl)-4-ethyl-5-oxo-4,5-dihydro-1H-1,2,4-triazol-3-yl)propyl)-6-fluoro-[1,1′-biphenyl]-3-yl)acetic acid] gave an IC50 of 796 nM. Work on CCn1c(CCCc2ccc(-c3cnc(C4(O)COC4)s3)cc2)nn(Cc2ccc(C(C)(C)C)cc2)c1=O [Example 204, 1-(4-(tert-Butyl)benzyl)-4-ethyl-3-(3-(4-(2-(3-hydroxyoxetan-3-yl)thiazol-5-yl)phenyl)propyl)-1H-1,2,4-triazol-5(4H)-one] yielded an IC50 of 50 nM. For CCn1c(CCCc2ccc(-c3ccc(OC)c(CC(=O)O)c3)cc2)nn(Cc2ccc(C(C)(C)C)cc2)c1=O [Example 21, 2-(4′-(3-(1-(4-(tert-Butyl)benzyl)-4-ethyl-5-oxo-4,5-dihydro-1H-1,2,4-triazol-3-yl)propyl)-4-methoxy-[1,1′-biphenyl]-3-yl)acetic acid], the IC50 was 25 nM. CCn1c(CCCc2ccc(-c3ccc(NS(=O)(=O)c4ccc(C(F)(F)F)cc4)cn3)cc2)nn(Cc2ccc(C(C)(C)C)cc2)c1=O [Example 86, 1-{[4-(tert-Butyl)phenyl]methyl}-4-ethyl-3-(3-{4-[5-({[4-(trifluoromethyl)phenyl]sulfonyl}amino)(2-pyridyl)]phenyl}propyl)-1,2,4-triazolin-5-one] was tested, and the IC50 was 971 nM. CCn1c(CCCc2ccc(-c3ccc(C4(F)COC4)nc3)cc2)nn(Cc2ccc(C(C)(C)C)cc2)c1=O [Example 166, 1-(4-(tert-Butyl)benzyl)-4-ethyl-3-(3-(4-(6-(3-fluorooxetan-3-yl)pyridine-3-yl)phenyl)propyl)-1H-1,2,4-triazol-5(4H)-one] was tested, and the IC50 was 91 nM. In the case of CCn1c(CCCc2ccc(-c3cc(CC(=O)O)ccn3)cc2)nn(Cc2ccc(C(C)(C)C)cc2)c1=O [Example 45, 2-(2-{4-[3-(1-{[4-(tert-Butyl)phenyl]methyl}-4-ethyl-5-oxo-1,2,4-triazolin-3-yl)propyl]phenyl}-4-pyridyl)acetic acid], the IC50 is reported as 306 nM. CCn1c(CCCc2ccc(-c3ccc(OC)c(CC(=O)NS(C)(=O)=O)c3)cc2)nn(Cc2ccc(C(C)(C)C)cc2)c1=O [Example 135, 2-(4′-(3-(1-(4-(tert-Butyl)benzyl)-4-ethyl-5-oxo-4,5-dihydro-1H-1,2,4-triazol-3-yl)propyl)-4-methoxy-[1,1′-biphenyl]-3-yl)-N-(methylsulfonyl)acetamide] was tested, and the IC50 was 192 nM.
